Assay: cn = amount concentration of the nth substance listed, in mol/dm3
Settings: 298.15 K, 101 kPa, Liquid, Direct current cell with electrodes

CCCCCCn1cc[n+](C)c1.F[P-](F)(F)(F)(F)F [1-hexyl-3-methylimidazolium hexafluorophosphate] + ClCCl
Settings | molar conductivity [S·m2/mol]
c1 = 2.071e-05 | 0.005749
c1 = 5.447e-05 | 0.004058
c1 = 8.254e-05 | 0.003448
c1 = 0.0001144 | 0.003025
c1 = 0.000155 | 0.002673
c1 = 0.0002089 | 0.002363
c1 = 0.0002627 | 0.002148
c1 = 0.0003123 | 0.001996
c1 = 0.0003903 | 0.001821
c1 = 0.0004551 | 0.00171

CCCCCCn1cc[n+](C)c1.F[B-](F)(F)F [1-hexyl-3-methylimidazolium tetrafluoroborate] + ClCCl
Settings | molar conductivity [S·m2/mol]
c1 = 5.56e-05 | 0.003176
c1 = 0.000168 | 0.001993
c1 = 0.000301 | 0.001551
c1 = 0.0004416 | 0.001315
c1 = 0.0005288 | 0.001218
c1 = 0.0006627 | 0.001107
c1 = 0.0007566 | 0.001048
c1 = 0.0009189 | 0.0009669
c1 = 0.001094 | 0.0009009
c1 = 0.001243 | 0.000856

CCCCCCCC[n+]1ccn(C)c1.F[B-](F)(F)F [1-methyl-3-octylimidazolium tetrafluoroborate] + ClCCl
Settings | molar conductivity [S·m2/mol]
c1 = 7.212e-05 | 0.002781
c1 = 0.0001299 | 0.002171
c1 = 0.000219 | 0.001735
c1 = 0.0002957 | 0.001524
c1 = 0.0003827 | 0.001364
c1 = 0.0004665 | 0.001253
c1 = 0.0005719 | 0.001149
c1 = 0.0006901 | 0.001061
c1 = 0.0008223 | 0.000986
c1 = 0.0009584 | 0.0009257

CCCCCCCC[n+]1ccn(C)c1.F[P-](F)(F)(F)(F)F [1-octyl-3-methylimidazolium hexafluorophosphate] + ClCCl
Settings | molar conductivity [S·m2/mol]
c1 = 2.186e-05 | 0.005349
c1 = 5.202e-05 | 0.003925
c1 = 8.128e-05 | 0.003298
c1 = 0.0001312 | 0.002717
c1 = 0.0001741 | 0.00242
c1 = 0.000228 | 0.002164
c1 = 0.0002847 | 0.001973
c1 = 0.00035 | 0.00181
c1 = 0.0004112 | 0.001693
c1 = 0.000468 | 0.001605

CCCC[N+](CCCC)(CCCC)CCCC.O=S(=O)([N-]S(=O)(=O)C(F)(F)F)C(F)(F)F [tetrabutylammonium bis[(trifluoromethyl)sulfonyl]imide] + ClCCl
Settings | molar conductivity [S·m2/mol]
c1 = 3.138e-05 | 0.007892
c1 = 6.11e-05 | 0.006903
c1 = 0.0001374 | 0.005603
c1 = 0.0001725 | 0.00525
c1 = 0.0002161 | 0.00489
c1 = 0.0002632 | 0.004603
c1 = 0.0003161 | 0.004342
c1 = 0.0003672 | 0.004133
c1 = 0.0004141 | 0.003988

CC[N+](CC)(CC)CC.O=S(=O)([N-]S(=O)(=O)C(F)(F)F)C(F)(F)F [tetraethylammonium bis[(trifluoromethyl)sulfonyl]imide] + ClCCl
Settings | molar conductivity [S·m2/mol]
c1 = 2.423e-05 | 0.009105
c1 = 5.571e-05 | 0.007427
c1 = 9.604e-05 | 0.006311
c1 = 0.0001485 | 0.005431
c1 = 0.0001889 | 0.005043
c1 = 0.0002419 | 0.004629
c1 = 0.0002877 | 0.004339
c1 = 0.0004028 | 0.003882
c1 = 0.0004632 | 0.003716

CC[N+](CC)(CC)CC.F[P-](F)(F)(F)(F)F [tetraethylammonium hexafluorophosphate] + ClCCl
Settings | molar conductivity [S·m2/mol]
c1 = 2.991e-05 | 0.008681
c1 = 7.038e-05 | 0.00678
c1 = 0.0001289 | 0.005542
c1 = 0.0001812 | 0.004911
c1 = 0.0002384 | 0.004448
c1 = 0.0002993 | 0.00409
c1 = 0.0003669 | 0.003794
c1 = 0.0004231 | 0.003599
c1 = 0.000508 | 0.003365
c1 = 0.0006057 | 0.003153

CC[N+](CC)(CC)CC.F[B-](F)(F)F [tetraethylammonium tetrafluoroborate] + ClCCl
Settings | molar conductivity [S·m2/mol]
c1 = 5.65e-05 | 0.006094
c1 = 0.000125 | 0.004646
c1 = 0.0002055 | 0.003888
c1 = 0.0002819 | 0.003459
c1 = 0.0003766 | 0.003101
c1 = 0.0004713 | 0.002847
c1 = 0.0005736 | 0.002643
c1 = 0.0006991 | 0.00245
c1 = 0.0007981 | 0.00233
c1 = 0.0008975 | 0.002227

C[N+](C)(C)C.O=S(=O)([N-]S(=O)(=O)C(F)(F)F)C(F)(F)F [tetramethylammonium bis[(trifluoromethyl)sulfonyl]imide] + ClCCl
Settings | molar conductivity [S·m2/mol]
c1 = 1.807e-05 | 0.006904
c1 = 4.669e-05 | 0.005019
c1 = 8.293e-05 | 0.004043
c1 = 0.0001225 | 0.003465
c1 = 0.0001669 | 0.003057
c1 = 0.000209 | 0.002792
c1 = 0.0002676 | 0.002521
c1 = 0.0003329 | 0.002305
c1 = 0.0004062 | 0.002123
c1 = 0.0004962 | 0.001957
